Measurements from patent US20030125311A1, “Compounds capable of binding with the cytoskeleton” (priority 2002, published 2003).

Assays:
[1] = tested on: rat brain cytosol binding sites of pregnenolone; test: Competition trials for PREG [3H] binding in brain cytosol; set-up: key to R.C.R. 50 (relative competition index): IC50(PREG)/IC50(competitor) ×100; PREG = 100; details: PREG = 100, 50% reduction of specific binding of 100 nM PREG [3H], mean±standard error, n=3
Procedure: In trials of competition between pregnenolone and different steroids for the binding studied, 0.2 ml of cytosol is incubated with 100 nM of PREG [^3H] and a 1-, 10-, 100-, and 1,000-fold excess of non-radioactive steroid.
To study the specificity of the binding of PREG [^3H], different steroids were used.
The relative competition index was determined as ratios of the concentrations of the competitor (in the […]) versus PREG causing a reduction of 50% of the specific binding of PREG [^3H]×100 (mean±standard error, n=3).

fetal rat brain neurons = test: Immunocytochemistry of fetal rat brain neuron cultures; assay type: cell-based; details: 1 μM for 2 days
Procedure: Primary cultures of E17 fetal neurons are performed according to El-Etr et al. (16). Briefly, this method consists of spreading the dissociated cells (200,000 cells/cm^2) on glass plates covered with poly-1-ornithine and cultured in a completely defined medium in 5% CO2 at 37° C. The culture conditions used permit a practically pure neuron population to be obtained.
24 h after seeding, 1 micromolar pregnenolone (final ethanol concentration 0.01%), or the solvent alone, is added and cultures are continued for 2 days. The cells are fixed in 4% paraformaldehyde, then frozen at −80° C. The cells are duly rehydrated by passages of 5 min in ethanol at concentrations of 100, 90 and 70%. After 2 washings in PBS, for 5 min, the cells are incubated in PBS containing 3% of BSA and 0.1% of Triton X100®, at ambient temperature for 1 h.
After 4 washings in PBS, the cells are incubated at 37° C. for 1 h, then at 4° C. for about 14 h, in the presence of either anti-α-tubulin monoclonal antibody diluted {fraction (1/2,000)}, or anti-MAP2 monoclonal antibody diluted {fraction (1/1,000)}, or anti-double-cortin antiserum diluted 1/300.
After 3 washings in PBS, the secondary antibody is added at ambient temperature, for 45 minutes. […]

[2] = tested on: calf brain tubulin assembled with calf brain MAP2; test: Electron microscopy of microtubules polymerized in the presence of PREG; assay type: biochemical; details: 500 nM of PREG
Procedure: After the polymerization of the microtubules induced by MAP2 in the absence or presence of the substance to be tested, an aliquot portion of the experimental sample is deposited on a hydrophilic grid (300 mesh) covered with carbon. The grids are treated with an aqueous solution of 1% uranyl acetate. Observations are performed with a Phllips CM12 electron microscope.
Analysis was performed of microtubules polymerized in the presence of PREG to verify their appearance.

adult microtubules = adult microtubules (Rattus norvegicus, UniProt P15146); test: Binding of PREG [3H] to purified adult rat brain microtubules
Procedure: (§1) The microtubules are prepared starting from calf brain or adult or fetal rat brain according to an assembly/disassembly method, as a function of the temperature, in vitro (12).
(§2) The binding of PREG [^3H] to microtubules prepared by polymerization/depolymerization cycles was determined.

fetal microtubules = fetal microtubules (Rattus norvegicus, UniProt P15146); test: Binding of PREG [3H] to purified fetal rat brain microtubules
Procedure: as §1, §2

tau protein = test: Saturable binding of PREG [3H] to purified tau protein; set-up: species or system calf; details: tau protein 25 μg/ml, 100 nM PREG [3H] ± 1,000-fold excess PREG
Procedure: (§3) The tau and MAP2 proteins are purified according to the protocol of Fellous et al. (12) by heat denaturation of the microtubules and gel filtration on a column, Sephacryl 300® being used instead of the Ultrogel ACA 34. The tau proteins are then Further purified according to the method of Lindwall and Cole (15).
(§4) Purified calf brain tubulin (90 μg/ml), MAP2 (45 μg/ml) or tau protein (25 μg/ml) is incubated with 100 nM of PREG [^3H], with or without a 1,000-fold excess of non-radioactive PREG.

[3] = molecular target: adult rat brain cytosol compound which binds PREG (Rattus norvegicus, UniProt P15146); test: Equilibrium binding of PREG to adult rat brain cytosol
Procedure: Adult male rat brains are collected after perfusion with PBS containing 2 IU/ml of heparin. The brains are weighed and homogenized with 4 vol. of homogenization buffer in Potter glass/Teflon® homogenizers, and centrifuged at 800 g for 10 min.
The supernatant is then centrifuged at 100,000 g for 1 h at 4° C. The samples are used immediately for the trials, or are stored in liquid nitrogen until the moment of their use.
Just before the binding trial, each sample is purified with a dextran-carbon suspension, and 2 ml samples of supernatant (purified cytosol) are added to a series of tubes containing 1 to 500 nM PREG [^3H], with or without unlabeled steroid in 1,000-fold excess.
The tubes are incubated at 45° C. for 30 min. The separation of bound and free steroid was carried out on a Sephadex LH-20® (Amersham Pharmacia Biotech) mini-column.
The counting of the radioactivity in the flasks was performed in a liquid scintillation spectrometer with attenuation correction (Tri-Carb 2100 TR®, Packard).

MAP2-tubulin copolymers = MAP2-tubulin copolymers (Bos taurus, UniProt A0A3Q1NAK9); test: Equilibrium binding of PREG [3H] to MAP2-tubulin copolymers; set-up: species or system calf
Procedure: The calf tubulin is purified according to the protocol of Weingarten et al. (13), but the step using phosphocellulose is replaced by a cation exchange column chromatography (Fractogel, Merck) (14). The microtubules and the tubulin are prepared in L buffer, supplemented with 1 mM of GTP (buffer A).
as §3, §4
The B/U values are reported in FIG. 5 as a function of B in nM, (-∘-) representing equilibrium binding of purified calf brain MAP2, and (-∘-) the equilibrium binding of purified calf brain MAP2 associated with purified calf brain tubulin (for the experimental details, see FIG. 1).

fetal microtubules, sequence (P15146 whole entry): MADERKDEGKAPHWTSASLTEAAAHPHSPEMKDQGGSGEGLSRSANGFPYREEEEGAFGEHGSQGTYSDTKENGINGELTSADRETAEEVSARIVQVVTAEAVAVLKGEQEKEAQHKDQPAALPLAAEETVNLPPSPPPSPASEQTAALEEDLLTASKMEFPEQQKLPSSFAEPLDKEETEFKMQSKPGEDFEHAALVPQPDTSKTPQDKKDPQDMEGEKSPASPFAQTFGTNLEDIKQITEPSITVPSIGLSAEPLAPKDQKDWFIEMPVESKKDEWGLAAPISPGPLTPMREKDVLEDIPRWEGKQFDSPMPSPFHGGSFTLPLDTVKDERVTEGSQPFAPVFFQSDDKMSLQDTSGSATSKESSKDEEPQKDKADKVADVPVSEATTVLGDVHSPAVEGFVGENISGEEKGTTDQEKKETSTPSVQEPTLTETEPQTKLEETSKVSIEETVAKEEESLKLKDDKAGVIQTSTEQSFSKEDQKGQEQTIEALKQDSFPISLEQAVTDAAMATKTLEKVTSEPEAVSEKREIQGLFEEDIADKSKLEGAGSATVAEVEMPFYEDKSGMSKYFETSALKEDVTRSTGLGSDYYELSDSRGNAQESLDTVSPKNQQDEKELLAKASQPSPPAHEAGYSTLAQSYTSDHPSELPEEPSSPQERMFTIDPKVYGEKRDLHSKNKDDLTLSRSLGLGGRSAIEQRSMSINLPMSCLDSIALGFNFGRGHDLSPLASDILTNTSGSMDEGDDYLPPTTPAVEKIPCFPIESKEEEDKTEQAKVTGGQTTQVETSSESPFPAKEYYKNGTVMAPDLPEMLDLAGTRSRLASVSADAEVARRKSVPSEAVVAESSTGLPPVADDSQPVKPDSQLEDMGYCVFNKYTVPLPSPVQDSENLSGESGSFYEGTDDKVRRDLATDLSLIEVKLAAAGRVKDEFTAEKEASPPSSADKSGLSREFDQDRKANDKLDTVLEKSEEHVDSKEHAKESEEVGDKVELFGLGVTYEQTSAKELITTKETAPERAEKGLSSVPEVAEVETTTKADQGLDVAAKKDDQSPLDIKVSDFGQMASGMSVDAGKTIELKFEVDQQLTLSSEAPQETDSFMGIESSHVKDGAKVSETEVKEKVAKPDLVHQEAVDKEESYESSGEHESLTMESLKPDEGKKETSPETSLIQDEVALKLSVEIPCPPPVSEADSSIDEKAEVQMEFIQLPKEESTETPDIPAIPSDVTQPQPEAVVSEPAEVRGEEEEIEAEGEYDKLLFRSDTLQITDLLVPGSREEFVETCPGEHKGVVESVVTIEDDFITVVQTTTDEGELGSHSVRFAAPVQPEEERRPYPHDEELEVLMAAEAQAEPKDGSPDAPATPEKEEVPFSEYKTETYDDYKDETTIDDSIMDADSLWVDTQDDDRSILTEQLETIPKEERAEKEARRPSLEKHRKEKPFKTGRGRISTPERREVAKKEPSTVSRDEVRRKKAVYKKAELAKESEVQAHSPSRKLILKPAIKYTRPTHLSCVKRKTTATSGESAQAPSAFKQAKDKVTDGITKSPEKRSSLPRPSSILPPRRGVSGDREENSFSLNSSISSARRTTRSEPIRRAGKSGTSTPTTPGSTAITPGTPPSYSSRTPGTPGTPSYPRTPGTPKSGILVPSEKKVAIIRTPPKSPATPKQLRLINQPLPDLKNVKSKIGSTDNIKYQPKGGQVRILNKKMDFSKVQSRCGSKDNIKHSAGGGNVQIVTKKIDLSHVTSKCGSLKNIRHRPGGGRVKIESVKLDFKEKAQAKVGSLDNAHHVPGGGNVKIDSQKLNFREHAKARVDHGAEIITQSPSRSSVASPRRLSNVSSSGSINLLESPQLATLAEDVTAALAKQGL
MAP2-tubulin copolymers, sequence (A0A3Q1NAK9 1-1867): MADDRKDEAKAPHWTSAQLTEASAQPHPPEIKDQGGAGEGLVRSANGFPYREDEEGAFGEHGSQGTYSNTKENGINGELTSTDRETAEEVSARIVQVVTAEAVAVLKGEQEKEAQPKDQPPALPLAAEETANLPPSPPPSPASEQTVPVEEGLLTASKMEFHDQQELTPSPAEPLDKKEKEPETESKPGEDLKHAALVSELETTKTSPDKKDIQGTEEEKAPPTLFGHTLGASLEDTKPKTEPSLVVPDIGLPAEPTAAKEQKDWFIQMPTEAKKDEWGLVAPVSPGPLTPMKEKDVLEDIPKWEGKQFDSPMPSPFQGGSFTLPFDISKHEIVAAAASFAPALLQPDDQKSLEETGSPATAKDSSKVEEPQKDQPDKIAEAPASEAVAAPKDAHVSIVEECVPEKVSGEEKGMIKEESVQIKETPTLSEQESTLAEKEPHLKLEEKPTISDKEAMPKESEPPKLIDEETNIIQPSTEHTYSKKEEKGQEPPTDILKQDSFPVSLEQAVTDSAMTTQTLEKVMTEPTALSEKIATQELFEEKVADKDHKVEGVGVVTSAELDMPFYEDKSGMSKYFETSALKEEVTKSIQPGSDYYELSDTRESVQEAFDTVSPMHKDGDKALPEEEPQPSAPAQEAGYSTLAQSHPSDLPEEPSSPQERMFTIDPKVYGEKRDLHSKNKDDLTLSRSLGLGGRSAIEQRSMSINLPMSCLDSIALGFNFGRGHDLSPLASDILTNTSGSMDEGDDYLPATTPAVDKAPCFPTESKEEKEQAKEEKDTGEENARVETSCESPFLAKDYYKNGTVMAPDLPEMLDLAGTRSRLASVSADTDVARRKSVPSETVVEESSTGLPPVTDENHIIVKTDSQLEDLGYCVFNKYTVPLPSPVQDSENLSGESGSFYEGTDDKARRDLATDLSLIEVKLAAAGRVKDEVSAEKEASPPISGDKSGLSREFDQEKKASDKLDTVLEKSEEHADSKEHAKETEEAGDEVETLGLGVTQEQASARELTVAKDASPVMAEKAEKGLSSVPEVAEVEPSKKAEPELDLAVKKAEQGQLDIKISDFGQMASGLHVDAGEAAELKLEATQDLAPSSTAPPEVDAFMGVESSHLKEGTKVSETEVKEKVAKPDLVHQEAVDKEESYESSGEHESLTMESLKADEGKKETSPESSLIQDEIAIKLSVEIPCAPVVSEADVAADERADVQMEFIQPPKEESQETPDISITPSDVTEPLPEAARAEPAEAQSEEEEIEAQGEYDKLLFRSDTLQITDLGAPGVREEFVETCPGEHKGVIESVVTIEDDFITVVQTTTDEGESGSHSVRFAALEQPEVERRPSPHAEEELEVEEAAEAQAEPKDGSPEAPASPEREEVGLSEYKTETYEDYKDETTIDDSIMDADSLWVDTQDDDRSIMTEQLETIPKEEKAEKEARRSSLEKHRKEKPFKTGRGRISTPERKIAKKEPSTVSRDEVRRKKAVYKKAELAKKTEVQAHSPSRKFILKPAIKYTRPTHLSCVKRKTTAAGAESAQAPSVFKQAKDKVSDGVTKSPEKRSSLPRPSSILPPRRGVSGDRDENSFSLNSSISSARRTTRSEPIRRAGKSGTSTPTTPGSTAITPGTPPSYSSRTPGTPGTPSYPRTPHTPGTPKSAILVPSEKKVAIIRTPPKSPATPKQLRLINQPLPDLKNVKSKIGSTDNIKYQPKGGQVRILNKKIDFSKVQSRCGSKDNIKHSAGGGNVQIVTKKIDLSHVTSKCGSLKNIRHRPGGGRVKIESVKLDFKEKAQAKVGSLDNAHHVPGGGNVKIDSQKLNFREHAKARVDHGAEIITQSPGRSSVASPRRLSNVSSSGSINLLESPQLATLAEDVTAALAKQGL
adult rat brain cytosol compound which binds PREG, sequence (P15146 whole entry, the tested form may be a part): as the sequence (P15146 whole entry) above
adult microtubules, sequence (Q3KRE8 whole entry): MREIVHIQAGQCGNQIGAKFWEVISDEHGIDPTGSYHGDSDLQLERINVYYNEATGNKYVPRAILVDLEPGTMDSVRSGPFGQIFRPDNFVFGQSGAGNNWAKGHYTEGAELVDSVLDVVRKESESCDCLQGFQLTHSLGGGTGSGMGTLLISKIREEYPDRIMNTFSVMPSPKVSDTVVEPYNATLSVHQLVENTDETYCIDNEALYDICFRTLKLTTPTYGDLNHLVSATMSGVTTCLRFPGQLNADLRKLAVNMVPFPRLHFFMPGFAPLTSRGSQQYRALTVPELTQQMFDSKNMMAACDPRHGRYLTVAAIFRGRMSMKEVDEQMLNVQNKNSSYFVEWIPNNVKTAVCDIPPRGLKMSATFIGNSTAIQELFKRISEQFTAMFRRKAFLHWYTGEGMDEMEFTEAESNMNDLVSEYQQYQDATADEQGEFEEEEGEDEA
adult microtubules, sequence (P68370 whole entry, further chain): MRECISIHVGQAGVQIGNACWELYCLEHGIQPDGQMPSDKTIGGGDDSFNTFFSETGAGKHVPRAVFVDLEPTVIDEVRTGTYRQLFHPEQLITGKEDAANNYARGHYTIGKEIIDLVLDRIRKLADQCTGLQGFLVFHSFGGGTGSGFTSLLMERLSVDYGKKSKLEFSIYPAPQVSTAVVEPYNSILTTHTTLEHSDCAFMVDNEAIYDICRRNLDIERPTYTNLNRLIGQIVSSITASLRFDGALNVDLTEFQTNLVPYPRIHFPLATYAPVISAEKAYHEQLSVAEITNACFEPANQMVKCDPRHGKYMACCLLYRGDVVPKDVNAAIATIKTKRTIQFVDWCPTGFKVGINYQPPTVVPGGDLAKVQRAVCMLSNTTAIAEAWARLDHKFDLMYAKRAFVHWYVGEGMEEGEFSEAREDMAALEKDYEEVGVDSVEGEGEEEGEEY
adult microtubules, sequence (P15146 whole entry): as the sequence (P15146 whole entry) above

R.C.R. 50 (relative competition index) [1]: 100
Bmax (adult microtubules): 3.4 pmol/mg of protein
Bmax (fetal microtubules): 3.7 pmol/mg of protein
Kd (fetal microtubules): 42.9 nM
Bmax [3]: 0.75 pmol/mg of protein
Bmax (MAP2-tubulin copolymers): 135 pmol/mg of MAP2
Kd (MAP2-tubulin copolymers): 44 nM
SMILES: CC(=O)C1CCC2C3CC=C4CC(O)CCC4(C)C3CCC12C (centres unmarked) [Pregnenolone]
immunolabeling of MAP2 (fetal rat brain neurons): increases the immunolabeling of MAP2 of the cell bodies and induces its extension to close nerve cells
staining with anti-α tubulin or anti-double-cortin antibodies (fetal rat brain neurons): does not show any difference
structure of the microtubules [2]: remains completely normal
saturable binding to tau protein (tau protein): neither tubulin, nor tau protein, nor rabbit IgG binds PREG [^3H] in a saturable manner
